pIC50: −log10 of the molar value.
How the values were obtained:
in vivo = settings: mouse, po, 120 mg/kg
Method: In order to determine their pharmacokinetics, the compounds of formula I are dissolved in dimethyl sulfoxide (DMSO) in a concentration of 240 mg/ml. The resulting solutions are diluted 1:20 (v/v) with 20% (w/v) aqueous hydroxypropyl-β-cyclodextrin solution in order to obtain a concentration of the test compound in question of 12 mg/ml. The resulting solution is treated briefly with ultrasound and administered orally to female BALB/c mice (Bomholt-garden, Copenhagen, Denmark) by artificial tube feeding at a dose of 120 mg/kg. At fixed times (for example 30, 60, 90, 120 min) after administration, mice are sacrificed and the plasma stored in heparinised test tubes. The blood is centrifuged (12,000×g, 5 min) and the plasma removed. The plasma is deproteinised by the addition of an equal volume of acetonitrile. The mixture is mixed using a vortex mixer and left to stand at room temperature for 20 to 30 minutes. The precipitate is pelleted by centrifugation (12,000×g, 5 min), and the concentration of the test compound is determined by reversed phase high performance liquid chromatography (HPLC).
The HPLC analysis of the samples obtained in accordance with the method described above is carried out on a 125×4.6 mm Nucleosil® C18 -column (reversed-phase material supplied by Macherey & Nagel, Duren, Germany, based on silica gel derivatised with carbon radicals having 18 carbon atoms), using a 2 cm long preliminary column of the same column material. The test is carried out with the following linear acetonitrile/water gradient (in each case in the presence of 0.05% trifluoroacetic acid): 20% acetonitrile to 100% acetonitrile for 20 min; then 5 min 100% acetonitrile; then returning to the initial conditions for 1 min and 4 min reequilibration. The flow rate is 1 ml/min. […] The test compound is detected by UV absorption measurement at 255 nm. Peaks are identified by the retention time and the UV spectrum between 205 and 400 nm. The concentrations are determined by the external standard method; the peak heights are obtained for determining the concentrations by comparison with standard curves.

HIV-1-protease = biological target: T1, HIV-1-protease (Human immunodeficiency virus type 1 group M subtype B, UniProt P04585); experiment: HIV-1-protease inhibition with icosapeptide substrate […] (HPLC); assay type: biochemical; settings: pH 6.0, 37° C., 1 hour, icosapeptide 122 μM
T1 construct: made in house
Method: The inhibitory action of the compounds of formula I on the proteolytic activity of HIV-1-protease can be shown, for example, analogously to the method described by A. D. Richards et al., J. Biol. Chem. 265(14), 7733-7736 (1990). In that method the inhibition of the action of HIV-1-protease (prepared in accordance with S. Billich et al., J. Biol. Chem. 263(34), 17905-17908 (1990)) is measured in the presence of the icosapeptide […] SEQ ID NO:1, a synthetic substrate of HIV-1-protease, prepared by peptide synthesis in accordance with known procedures, see J. Schneider et al., Cell 54, 363-368 (1988)), which contains as substrate analogue one of the cleavage sites of the gag-precursor protein (natural substrate of HIV-1-protease). That substrate and its cleavage products are analysed by high performance liquid chromatography (HPLC).
The test compound is dissolved in dimethyl sulfoxide. The enzymatic test is carried out by adding suitable dilutions of the inhibitor in 20 mM β-morpholinoethanesulfonic acid (MES) buffer pH 6.0 to the test mixture. That mixture consists of the above-mentioned iscosapeptide (122 μM) in 20 mM MES-buffer pH 6.0. 100 μl are used per test batch. The reaction is started by the addition of […] of HIV-1-protease solution and is stopped after one hours incubation at 37° C. by the addition of 10 μl of 0.3M HClO4. After centrifugation of the sample at 10,000×g for 5 minutes, […] of the resulting supernatant are applied to a 125×4.6 mm Nucleosil® C18-5m-HPLC column (reversed-phase material supplied by Macherey & Nagel, Duren, FRG, based on silica gel that has been charged with C18 alkyl chains). The uncleaved icosapeptide and its cleavage products are eluted from the column by means of the following gradient: 100% eluant 1→50% eluant 1+50% eluant 2 (eluant 1: 10% acetonitrile, 90% H2 O, 0.1% trifluoroacetic acid (TFA); eluant 2: 75% acetonitrile, 25% H2 O, 0.08% TFA) for 15 minutes, throughflow rate 1 ml/min. The quantification of the eluted peptide fragments is carried out by measuring the peak height of the cleavage product at 215 nm.
In the test system described above (with […]), SEQ ID NO:1 the following IC50 values are obtained for Examples 1 to 5: […]

HIV-1/MN in MT-2-cells = experiment: Protection of HIV-1/MN-infected MT-2-cells, reverse transcriptase activity; assay type: cell-based; settings: Human immunodeficiency virus 1, MT2, 96 h; 90% reduction of RT activity; HIV-1-infected MT-2-cells; 4 days; read-out: ED90 (the source's name)
Source text: In a further test it can be shown that compounds of formula I protect cells normally infected by HIV from such an infection or at least slow down such an infection. For this test, MT-2-cells infected with HIV-1/MN are used. MT-2-cells have been transformed with a continuous producer of HTLV-1 (a virus causing leukaemia); they are therefore especially sensitive to the cytopathogenic effect of HIV. MT-2-cells can be obtained via the AIDS Research and Reference Reagent Program, Division of AIDS, NIAID, NIH from Dr. Douglas Richman (see J. Biol. Chem. 263, 5870-5875 (1988) and also Science 229, 563-566 (1985)). The MT-2-cells are cultured in RPMI 1640-medium (Gibco, Scotland; RPMI comprises an amino acid mixture without glutamine) supplemented with 10% heat-inactivated foetal calf serum, glutamine and standard antibiotics. In all cases the cells, and also the virus stock solution used for the infection (HIV-1/MN), are free of mycoplasms. The virus stock solution is prepared as a cell culture supernatant of the permanently infected cell line H9/HIV-1/MN, which can likewise be obtained via the AIDS Research and Reference Program, Division of AIDS, NIAID, NIH from Dr. Robert Gallo (see also Science 224, 500-503 (1984) and Science 226, 1165-1170 (1984)). The titre of the HIV-1/MN virus stock solution (determined by titration onto MT-2-cells) is 4.2×10^5 TCID50/ml (TCID50=Tissue Culture Infective Dose=dose that infects 50% of the MT-2-cells). In order to measure the infection-inhibiting action of the compounds of formula I, 50 μl of the test compound in question in culture medium and 2800 TCID50 of HIV-1/MN in 100 μl of culture medium are added to 2×10^4 exponentially growing MT-2-cells which have been applied in 50 μl of culture medium to 96-well microtitre plates (having a round base). After 4 days' incubation (at 37° C., 5% CO2) a 10 μl sample of the supernatant is taken from each well, transferred to a further 96-well microtitre plate and (if necessary) stored at -20° C. In order to measure the activity of the virus-associated reverse transcriptase, 30 μl of reverse transcriptase (RT) cocktail are added to each sample. The reverse transcriptase cocktail consists of 50 mM Tris (α,α,α-tris(hydroxymethyl)methylamine, Ultra pur, Merck, Germany) pH 7.8; 75 mM KCl, 2 mM dithiothreitol, 5 mM MgCl2; 0.1% Nonidet P40 (detergent; Sigma, Switzerland), 0.8 mM EDTA, 10 μg/ml Poly-A (Pharmacia, Uppsala, Sweden) and 0.16 μg/ml oligo(T) (=pdT(12-18), Pharmacia, Uppsala, Sweden) as "template primer"--if desired, the mixture is filtered through a […] Acrodisc filter (Gelman Sciences Inc., Ann Arbor, USA). It is stored at -20° C. Prior to the test, 0.1% (v/v) [alpha-^32 P]dTTP is added to aliquots of the solution in order to establish a final radioactivity of 10 μCi/ml.
After mixing, the plate is incubated for 2 hours at 37° C. 5 μl of the reaction mixture are transferred to DE81 paper (Whatman, one filter per well). The dried filters are washed three times for 5 minutes with 300 mM NaCl/25 mM trisodium citrate and then once with ethanol and again dried in the air. The radioactivity on the filters is measured in a Matrix Packard 96-well counter (Packard, Zurich, Switzerland). The ED90 values are calculated and are defined as the concentration of the test compound that reduces the RT activity by 90% in comparison with a control without test compound. […]

HIV-protease = settings: cited from earlier work
[1] = test system: CD4-lymphocytes in the blood; settings: AIDS patients, in words; cited from earlier work
[2] = in vivo; cited from earlier work
virus replication = settings: in words; cited from earlier work
[3] = in vivo, po; cited from earlier work

Compound | concentration at 0.5 h (in vivo) | concentration at 1.5 h (in vivo) | pIC50 (HIV-1-protease) | EC90 (HIV-1/MN in MT-2-cells) | inhibitory action against HIV-protease in vitro (HIV-protease) | surrogate-marker (titre of the CD4-lymphocytes) [1] | blood levels in humans [2] | virus replication in cell experiments (virus replication) | blood levels in rodents [3]
COC(=O)N[C@H](C(=O)N[C@@H](Cc1ccccc1)[C@@H](O)CN(Cc1ccc(-c2ccccc2)cc1)NC(=O)[C@@H](NC(=O)OC)C(C)(C)C)C(C)(C)C [Example 5, 1-(4-Biphenylyl)-4(S)-hydroxy-5(S)-2,5-bis[N-(N-methoxycarbonyl-(L)-tert-leucyl)-amino]-6-phenyl-2-azahexane] | 5530 nM | 4910 nM | 7.24 | 3 µM |  |  |  |  | 
CC(C)(C)NC(=O)[C@@H]1C[C@@H]2CCCC[C@@H]2CN1C[C@@H](O)[C@H](Cc1ccccc1)NC(=O)[C@H](CC(N)=O)NC(=O)c1ccc2ccccc2n1 [Ro 31-8959, N-tert-butyl-decahydro-2-[2(R)-hydroxy-4-phenyl-3(S)-[[N-2-quinolyl-carbonyl-L-asparaginyl]amino]butyl]-(4aS,8aS)-isoquinoline-3(S)-carboxamide] |  |  |  |  | exhibits an inhibitory action | initial positive effects | usable blood levels | suppression of virus replication | blood levels that are still usable
COC(=O)N[C@H](C(=O)N[C@@H](Cc1ccccc1)[C@@H](O)CN(Cc1ccc(-c2ccccc2C#N)cc1)NC(=O)[C@@H](NC(=O)OC)C(C)(C)C)C(C)C [Example 4, 1-[4-(2-Cyanophenyl)phenyl)-2-N-(N-methoxycarbonyl-(L)-tert-leucyl)-amino-4(S)-hydroxy-5(S)-N-(N-methoxycarbonyl-(L)-valyl)-amino-6-phenyl-2-azahexane] | 1680 nM | 1930 nM | 7.37 | 3 µM |  |  |  |  | 
COC(=O)N[C@H](C(=O)NN(Cc1ccc(-c2ccccc2)cc1)C[C@H](O)[C@H](Cc1ccccc1)NC(=O)[C@@H](NC(=O)OC)C(C)(C)C)C(C)C [Example 2, 1-(4-Biphenylyl)-2-N-(N-methoxycarbonyl-(L)-valinyl)-amino-4(S)-hydroxy-5(S)-N-(N-methoxycarbonyl-(L)-tert-leucyl)-amino-6-phenyl-2-azahexane] | 640 nM | 1110 nM | 7.07 | 3 µM |  |  |  |  | 
COC(=O)N[C@H](C(=O)NN(Cc1ccc(-c2ccccc2C#N)cc1)C[C@H](O)[C@H](Cc1ccccc1)NC(=O)[C@@H](NC(=O)OC)C(C)(C)C)C(C)C [Example 3, 1-[4-(2-Cyanophenyl)phenyl]-2-N-(N-methoxycarbonyl-(L)-valyl)-amino-4(S)-hydroxy-5(S)-N-(N-methoxycarbonyl-(L)-tert-leucyl)-amino-6-phenyl-2-azahexane] | 1420 nM | 1950 nM | 7.42 | 10 µM |  |  |  |  | 
COC(=O)N[C@H](C(=O)N[C@@H](Cc1ccccc1)[C@@H](O)CN(Cc1ccc(-c2ccccc2)cc1)NC(=O)[C@@H](NC(=O)OC)C(C)(C)C)C(C)C [Example 1, 1-(4-Biphenylyl)-2-N-(N-methoxycarbonyl-(L)-tert-leucyl)-amino-4(S)-hydroxy-5(S)-N-(N-methoxycarbonyl-(L)-valyl)-amino-6-phenyl-2-azahexane] | 6330 nM | 5350 nM | 7.29 | 3 µM |  |  |  |  | 

From US6225345A, “Azahexane derivatives as substrate isosters of retroviral asparate proteases” (Novartis AG, priority 1995, dated 2001)
